In patent publication US12201640B2, “19-nor C3,3-disubstituted C21-n-pyrazolyl steroids and methods of use thereof” (Sage Therapeutics, Inc., priority 2013, dated 2025):
pIC50: −log10 of the molar value.

Columns and labels:
[1] = molecular target: T1, GABAA receptor α1β2γ2 (Homo sapiens, UniProt P14867+P47870); experiment: Patch clamp electrophysiology, Qpatch in Ltk cells; type: cell-based; conditions: 10 μM test article, GABA EC20 2 μM, read-out: GABA (α1β2γ2) Qpatch in Ltk, % efficacy at 10 μM
T1 construct: expressed in transfected cells
Experimental: Patch Clamp Electrophysiology of Recombinant α1β2γ2 and α4β3δ GABAA Receptors
Cellular electrophysiology is used to measure the pharmacological properties of our GABAA receptor modulators in heterologous cell systems. Each compound is tested for its ability to affect GABA mediated currents at a submaximal agonist dose (GABA EC20=2 μM). LTK cells are stably transfected with the α1β2γ2 subunits of the GABA receptor and CHO cells are transiently transfected with the α4β3δ subunits via the Lipofecatamine method. Cells were passaged at a confluence of about 50-80% and then seeded onto 35 mm sterile culture dishes containing 2 ml culture complete medium without antibiotics or antimycotics. Confluent clusters of cells are electrically coupled (Pritchett et al., Science, 1988, 242, 1306-1308.). Because responses in distant cells are not adequately voltage clamped and because of uncertainties about the extent of coupling (Verdoorn et al., Neuron 1990, 4, 919-928.), cells were cultivated at a density that enables the recording of single cells (without visible connections to other cells).
Whole cell currents were measured with HEKA EPC-10 amplifiers using PatchMaster software or by using the high throughput QPatch platform (Sophion). Bath solution for all experiments contained (in mM): NaCl 137 mM, KCl 4 mM, CaCl2 1.8 mM, MgCl2 1 mM, HEPES 10 mM, D-Glucose 10 mM, pH (NaOH) 7.4. In some cases 0.005% cremophor was also added. Intracellular (pipette) solution contained: KCl 130 mM, MgCl2 1 mM, Mg-ATP 5 mM, HEPES 10 mM, EGTA 5 mM, pH 7.2. During experiments, cells and solutions were maintained at room temperature (19° C.-30° C.). For manual patch clamp recordings, cell culture dishes were placed on the dish holder of the microscope and continuously perfused (1 ml/min) with bath solution. After formation of a Gigaohm seal between the patch electrodes and the cell (pipette resistance range: 2.5 MΩ-6.0 MΩ; seal resistance range: >1 GΩ) the cell membrane across the pipette tip was ruptured to assure electrical access to the cell interior (whole-cell patch-configuration). For experiments using the QPatch system, cells were transferred as suspension to the QPatch system in the bath solution and automated whole cell recordings were performed.
Cells were voltage clamped at a holding potential of −80 mV. For the analysis of test articles, GABA receptors were stimulated by 2 μM GABA after sequential pre-incubation of increasing concentrations of the test article. Pre-incubation duration was 30 s and the duration of the GABA stimulus was 2 s. Test articles were dissolved in DMSO to form stock solutions (10 mM). Test articles were diluted to 0.01, 0.1, 1, and 10 μM in bath solution. All concentrations of test articles were tested on each cell. The relative percentage potentiation was defined as the peak amplitude in response to GABA EC20 in the presence of the test article divided by the peak amplitude in response to GABA EC20 alone, multiplied by 100.

[2] = molecular target: [35S]-TBPS binding, rat brain cortical membranes (GABA receptor complex); experiment: Steroid inhibition of [35S]-TBPS binding; conditions: 3 nM [35S]-TBPS, 5 μM GABA
Experimental: Steroid Inhibition of TBPS Binding
[35S]-t-Butylbicyclophosphorothionate (TBPS) binding assays using rat brain cortical membranes in the presence of 5 μM GABA has been described (Gee et al, J. Pharmacol. Exp. Ther. 1987, 241, 346-353; Hawkinson et al, Mol. Pharmacol. 1994, 46, 977-985; Lewin, A. H et al., Mol. Pharmacol. 1989, 35, 189-194).
Briefly, cortices are rapidly removed following decapitation of carbon dioxide-anesthetized Sprague-Dawley rats (200-250 g). The cortices are homogenized in 10 volumes of ice-cold 0.32 M sucrose using a glass/teflon homogenizer and centrifuged at 1500×g for 10 min at 4° C. The resultant supernatants are centrifuged at 10,000×g for 20 min at 4° C. to obtain the P2 pellets. The P2 pellets are resuspended in 200 mM NaCl/50 mM Na-K phosphate pH 7.4 buffer and centrifuged at 10,000×g for 10 min at 4° C. This washing procedure is repeated twice and the pellets are resuspended in 10 volumes of buffer. Aliquots (100 μL) of the membrane suspensions are incubated with 3 nM [^35S]-TBPS and 5 μL aliquots of test drug dissolved in dimethyl sulfoxide (DMSO) (final 0.5%) in the presence of 5 μM GABA. The incubation is brought to a final volume of 1.0 mL with buffer. Nonspecific binding is determined in the presence of 2 μM unlabeled TBPS and ranged from 15 to 25%. Following a 90 min incubation at room temp, the assays are terminated by filtration through glass fiber filters (Schleicher and Schuell No. 32) using a cell harvester (Brandel) and rinsed three times with ice-cold buffer. Filter bound radioactivity is measured by liquid scintillation spectrometry. Non-linear curve fitting of the overall data for each drug averaged for each concentration is done using Prism (GraphPad). […] The concentration of test compound producing 50% inhibition (IC50) of specific binding and the maximal extent of inhibition (Imax) are determined for the individual experiments with the same model used for the overall data and then the means±SEM.s of the individual experiments are calculated.
Various compounds are or can be screened to determine their potential as modulators of [^35S]-TBPS binding in vitro. These assays are or can be performed in accordance with the above discussed procedures.

T1 sequence (P14867 28-456): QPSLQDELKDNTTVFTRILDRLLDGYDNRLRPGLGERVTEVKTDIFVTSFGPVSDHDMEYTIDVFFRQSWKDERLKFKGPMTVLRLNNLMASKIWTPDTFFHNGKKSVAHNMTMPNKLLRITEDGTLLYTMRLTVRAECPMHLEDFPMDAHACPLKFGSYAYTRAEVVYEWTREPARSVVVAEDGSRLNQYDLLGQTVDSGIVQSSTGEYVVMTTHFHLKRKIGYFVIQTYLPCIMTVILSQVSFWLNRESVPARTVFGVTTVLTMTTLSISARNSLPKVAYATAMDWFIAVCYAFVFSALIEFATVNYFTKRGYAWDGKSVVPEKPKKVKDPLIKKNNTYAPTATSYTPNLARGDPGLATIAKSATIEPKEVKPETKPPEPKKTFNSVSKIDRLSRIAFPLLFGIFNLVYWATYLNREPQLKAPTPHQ
T1 sequence (P47870 25-512 limits assumed): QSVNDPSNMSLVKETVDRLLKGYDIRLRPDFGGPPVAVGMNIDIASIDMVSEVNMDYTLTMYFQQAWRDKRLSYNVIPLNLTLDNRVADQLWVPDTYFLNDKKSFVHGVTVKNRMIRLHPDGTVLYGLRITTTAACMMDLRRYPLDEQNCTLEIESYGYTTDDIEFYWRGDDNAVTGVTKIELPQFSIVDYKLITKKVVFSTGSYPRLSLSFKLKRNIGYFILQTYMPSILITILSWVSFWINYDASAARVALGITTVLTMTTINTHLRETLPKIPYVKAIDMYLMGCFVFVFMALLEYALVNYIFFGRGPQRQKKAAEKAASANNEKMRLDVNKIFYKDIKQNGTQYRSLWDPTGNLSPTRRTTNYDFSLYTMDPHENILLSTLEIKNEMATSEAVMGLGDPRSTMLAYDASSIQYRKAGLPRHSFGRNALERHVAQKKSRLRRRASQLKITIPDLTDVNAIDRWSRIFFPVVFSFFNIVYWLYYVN
T1 sequence (P18507 40-475 partner): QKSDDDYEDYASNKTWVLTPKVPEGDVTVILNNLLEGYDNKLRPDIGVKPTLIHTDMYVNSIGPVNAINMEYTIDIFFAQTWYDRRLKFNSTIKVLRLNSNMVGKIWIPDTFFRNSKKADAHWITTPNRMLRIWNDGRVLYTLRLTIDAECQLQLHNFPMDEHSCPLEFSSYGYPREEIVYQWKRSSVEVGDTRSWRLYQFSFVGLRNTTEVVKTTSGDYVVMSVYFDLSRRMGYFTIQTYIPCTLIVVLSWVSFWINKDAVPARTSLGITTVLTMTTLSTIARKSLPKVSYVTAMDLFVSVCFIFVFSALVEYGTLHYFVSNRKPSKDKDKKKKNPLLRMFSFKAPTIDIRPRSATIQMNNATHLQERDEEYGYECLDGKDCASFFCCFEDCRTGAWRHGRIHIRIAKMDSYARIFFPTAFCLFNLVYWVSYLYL

Compound	Emax at 10 µM [1]	pIC50 [2]
C[C@]12CC[C@H]3[C@@H](CC[C@H]4C[C@@](O)(CF)CC[C@@H]43)[C@@H]1CC[C@@H]2C(=O)Cn1cc(C#N)cn1 [SB-22]	> 500%	6.30 to 7.00
Cc1cc(C)n(CC(=O)[C@H]2CC[C@H]3[C@@H]4CC[C@@H]5C[C@](C)(O)CC[C@@H]5[C@H]4CC[C@]23C)n1 [SA-12]	100 to 500%	7.30 to 8.00
C[C@]12CC[C@H]3[C@@H](CC[C@@H]4C[C@@](O)(CF)CC[C@@H]43)[C@@H]1CC[C@@H]2C(=O)Cn1cccn1 [SA-31]	100 to 500%	6.30 to 7.00
COC[C@@]1(O)CC[C@H]2[C@@H](CC[C@@H]3[C@@H]2CC[C@]2(C)[C@@H](C(=O)Cn4cccn4)CC[C@@H]32)C1 [SB-4]	> 500%	6.30 to 7.00
CSc1cnn(CC(=O)[C@H]2CC[C@H]3[C@@H]4C[C@@H](F)[C@H]5C[C@](C)(O)CC[C@@H]5[C@H]4CC[C@]23C)c1 [SB-14]	100 to 500%	–
C[C@@]1(O)CC[C@H]2[C@H](CC[C@@H]3[C@@H]2CC[C@]2(C)[C@@H](C(=O)Cn4cc(F)cn4)CC[C@@H]32)C1 [SA-21]	> 500%	–
C[C@@]1(O)CC[C@@H]2[C@H]3CC[C@]4(C)[C@@H](C(=O)Cn5ccc(C#N)n5)CC[C@H]4[C@@H]3C[C@@H](F)[C@H]2C1 [SB-13]	100 to 500%	–
C[S+]([O-])c1cnn(CC(=O)[C@H]2CC[C@H]3[C@@H]4CC[C@@H]5C[C@](C)(O)CC[C@@H]5[C@H]4CC[C@]23C)c1 (stereo partly drawn) [SA-20]	100 to 500%	–
C[C@]12CC[C@H]3[C@@H](CC[C@@H]4C[C@@](O)(C(F)F)CC[C@@H]43)[C@@H]1CC[C@@H]2C(=O)Cn1cc(S(C)(=O)=O)cn1 [SA-29]	–	≤ 6.30
CC[C@@]1(O)CC[C@H]2[C@H](CC[C@@H]3[C@@H]2CC[C@]2(C)[C@@H](C(=O)Cn4cccn4)CC[C@@H]32)C1 [SA-35]	100 to 500%	6.30 to 7.00
C[C@@]1(O)CC[C@H]2[C@@H](CC[C@@H]3[C@@H]2CC[C@]2(C)[C@@H](C(=O)Cn4cc(S(C)(=O)=O)cn4)CC[C@@H]32)C1 [SB-3]	–	≤ 6.30
C[C@]12CC[C@H]3[C@@H](CC[C@@H]4C[C@@](O)(C(F)F)CC[C@@H]43)[C@@H]1CC[C@@H]2C(=O)Cn1cccn1 [SA-27]	100 to 500%	6.30 to 7.00
COC[C@@]1(O)CC[C@H]2[C@H](CC[C@@H]3[C@@H]2CC[C@]2(C)[C@@H](C(=O)Cn4cccn4)CC[C@@H]32)C1 [SA-23]	> 500%	6.30 to 7.00
CSc1cnn(CC(=O)[C@H]2CC[C@H]3[C@@H]4CC[C@@H]5C[C@](C)(O)CC[C@@H]5[C@H]4CC[C@]23C)c1 [SA-18]	> 500%	–
Cc1cnn(CC(=O)[C@H]2CC[C@H]3[C@@H]4C[C@@H](F)[C@H]5C[C@](C)(O)CC[C@@H]5[C@H]4CC[C@]23C)c1 [SB-12]	100 to 500%	–
CCOC(=O)c1cnn(CC(=O)[C@H]2CC[C@H]3[C@@H]4CC[C@@H]5C[C@](C)(O)CC[C@@H]5[C@H]4CC[C@]23C)c1 [SA-3]	> 500%	> 8.00

Compound	Emax at 10 µM [1]	pIC50 [2]
C[C@@]1(O)CC[C@@H]2[C@H]3CC[C@]4(C)[C@@H](C(=O)Cn5cccn5)CC[C@H]4[C@@H]3C[C@@H](F)[C@@H]2C1 [SA-25]	–	≤ 6.30
C[C@@]1(O)CC[C@H]2[C@H](CC[C@@H]3[C@@H]2CC[C@]2(C)[C@@H](C(=O)Cn4cc(C(F)(F)F)cn4)CC[C@@H]32)C1 [SA-14]	100 to 500%	–
CO[C@H]1C[C@H]2[C@@H](CC[C@@H]3[C@@H]2CC[C@]2(C)[C@@H](C(=O)Cn4cccn4)CC[C@@H]32)C[C@]1(C)O [SB-19]	> 500%	6.30 to 7.00
COC[C@@]1(O)CC[C@H]2[C@@H](CC[C@@H]3[C@@H]2CC[C@]2(C)[C@@H](C(=O)Cn4cc(S(C)(=O)=O)cn4)CC[C@@H]32)C1 [SB-7]	–	≤ 6.30
Cc1cn(CC(=O)[C@H]2CC[C@H]3[C@@H]4CC[C@@H]5C[C@](C)(O)CC[C@@H]5[C@H]4CC[C@]23C)nc1C [SA-15]	100 to 500%	–
CC[C@@]1(O)CC[C@H]2[C@H](CC[C@@H]3[C@@H]2CC[C@]2(C)[C@@H](C(=O)Cn4cc(C#N)cn4)CC[C@@H]32)C1 [SA-30]	100 to 500%	–
C[C@]12CC[C@H]3[C@@H](CC[C@@H]4C[C@@](O)(C(F)F)CC[C@@H]43)[C@@H]1CC[C@@H]2C(=O)Cn1cc(C#N)cn1 [SA-28]	> 500%	–
C[C@@H]1C[C@H]2[C@@H](CC[C@@H]3[C@@H]2CC[C@]2(C)[C@@H](C(=O)Cn4cccn4)CC[C@@H]32)C[C@]1(C)O [SB-18]	100 to 500%	6.30 to 7.00
CC[C@@]1(O)CC[C@H]2[C@@H](CC[C@@H]3[C@@H]2CC[C@]2(C)[C@@H](C(=O)Cn4cccn4)CC[C@@H]32)C1 [SB-20]	–	≤ 6.30
CC[C@@]1(O)CC[C@H]2[C@@H](CC[C@@H]3[C@@H]2CC[C@]2(C)[C@@H](C(=O)Cn4cc(C#N)cn4)CC[C@@H]32)C1 [SB-21]	100 to 500%	–
CCOC[C@@]1(O)CC[C@H]2[C@@H](CC[C@@H]3[C@@H]2CC[C@]2(C)[C@@H](C(=O)Cn4cccn4)CC[C@@H]32)C1 [SB-8]	–	≤ 6.30
CCc1cnn(CC(=O)[C@H]2CC[C@H]3[C@@H]4CC[C@@H]5C[C@](C)(O)CC[C@@H]5[C@H]4CC[C@]23C)c1 [SA-16]	> 500%	–
CCOC[C@@]1(O)CC[C@H]2[C@@H](CC[C@@H]3[C@@H]2CC[C@]2(C)[C@@H](C(=O)Cn4cc(C#N)cn4)CC[C@@H]32)C1 [SB-9]	100 to 500%	–
C[C@]12CC[C@H]3[C@@H](CC[C@H]4C[C@@](O)(CF)CC[C@@H]43)[C@@H]1CC[C@@H]2C(=O)Cn1cccn1 [SB-23]	100 to 500%	6.30 to 7.00
C[C@]12CC[C@H]3[C@@H](CC[C@@H]4C[C@@](O)(CF)CC[C@@H]43)[C@@H]1CC[C@@H]2C(=O)Cn1cc(S(C)(=O)=O)cn1 [SA-33]	–	≤ 6.30
